In brackets after ≈: the same amount, converted by molar mass. Structures can show the parent of a compound that is named as a salt. Where two headings read alike, the source gives them in different places.

Series [1] can be described thus: Stability evaluation in aqueous buffer. Format: physicochemical. Conditions: aqueous buffer, 37° C., about 50 μg/mL, about 15% v/v acetonitrile. As for the experimental part: The stability study of an individual prodrug was conducted with about 50 μg/mL solutions in aqueous buffers of pH 1 (0.1 M HCl), 4 (acetate buffer) and 6.5 (phosphate buffer) at 37° C. for 24 hours. About 15% v/v acetonitrile was used in these pH buffers as a co-solvent to obtain clear solutions of prodrugs. The sample analysis was carried out using a generic reversed phase liquid chromatographic (LC) method with UV detection. The area percent (AP) loss of the prodrug peak was quantified as a function of time. The appearance of parent peak was identified from the chromatographic retention time. The half-life (t1/2, h) of the prodrug was calculated by using a pseudo-first order equation from a AP loss vs time plot.

Series [2] in a line: Solubility evaluation in aqueous buffer. It counts as physicochemical. Conditions: thermodynamic from solid, about 24 hours equilibration. As for the experimental part:
The solid powder of an individual prodrug was equilibrated in aqueous buffers of pH 1, 4 and 6.5 at 25° C. for about 24 hours. After equilibration, the excess solid was separated by filtration using 0.45 μm membrane filter and the filtrate was collected in suitable glass vial. The filtrate was diluted appropriately using respective buffers/diluent and analyzed by a reversed phase LC method with UV detection.

The mark [3] stands for this setting: pH 1, pH 1 (0.1 M HCl), read-out: Stability (t1/2, h) at 37° C. pH 1 (converted).
Setting [4] is: pH 4, pH 4 (acetate buffer), read-out: Stability (t1/2, h) at 37° C. pH 4 (converted).
Setting [5] is: pH 6.5, pH 6.5 (phosphate buffer), read-out: Stability (t1/2, h) at 37° C. pH 6.5 (converted).
[6] abbreviates: aqueous buffer, 25 °C, pH 1, simulated gastric fluid, aqueous buffer pH 1, 25° C., read-out: Solubility (mg/mL) at 25° C. pH 1.
Where [7] appears, read: aqueous buffer, 25 °C, pH 4, aqueous buffer, aqueous buffer pH 4, 25° C., read-out: Solubility (mg/mL) at 25° C. pH 4.
Setting [8] is: aqueous buffer, 25 °C, pH 6.5, aqueous buffer, aqueous buffer pH 6.5, 25° C., read-out: Solubility (mg/mL) at 25° C. pH 6.5.

With `CNCC(=O)n1c(-c2cn3ncnc3c(C)c2C)c(C(C)C)c2cc(C3CCN(CC(N)=O)CC3)ccc21` [Example 5, 2-(4-(2-(7,8-Dimethyl-[1,2,4]triazolo[1,5-a]pyridin-6-yl)-3-isopropyl-1-(methylglycyl)-1H-indol-5-yl)piperidin-1-yl)acetamide ditrifluoroacetate], the half-life in series [1] (setting [3]) was above 500 h; in series [1] (setting [4]), 233 h; in series [1] (setting [5]) it was 4.5 h. In addition, the solubility was above 2.84 mg/mL in series [2] (setting [6]), above 2.15 mg/mL in series [2] (setting [7]) and 1.19 mg/mL (≈ 2310 µM) in series [2] (setting [8]).
With `Cc1c(-c2c(C(C)C)c3cc(C4CCN(CC(N)=O)CC4)ccc3n2C(=O)CCCOP(=O)(O)O)cn2ncnc2c1C` [Example 10, 4-(5-(1-(2-Amino-2-oxoethyl)piperidin-4-yl)-2-(7,8-dimethyl-[1,2,4]triazolo[1,5-a]pyridin-6-yl)-3-isopropyl-1H-indol-1-yl)-4-oxobutyl dihydrogen phosphate], the half-life is 347 h in series [1] (setting [3]), above 500 h in series [1] (setting [4]) and above 500 h in series [1] (setting [5]). For the same compound, the solubility in series [2] (setting [6]) was 0.43 mg/mL; in series [2] (setting [7]) it was 0.1 mg/mL; in series [2] (setting [8]) it was 0.12 mg/mL.
As to `Cc1c(-c2c(C(C)C)c3cc(C4CCN(CC(N)=O)CC4)ccc3n2SC[C@H](N)C(=O)O)cn2ncnc2c1C` [Example 11, S-(5-(1-(2-Amino-2-oxoethyl)piperidin-4-yl)-2-(7,8-dimethyl-[1,2,4]triazolo[1,5-a]pyridin-6-yl)-3-isopropyl-1H-indol-1-yl)-L-cysteine], the half-life was above 500 h in series [1] (setting [3]), above 500 h in series [1] (setting [4]) and 154 h in series [1] (setting [5]). Besides, the solubility in series [2] (setting [6]) is above 1.03 mg/mL; in series [2] (setting [7]) it was 0.007 mg/mL (≈ 12.4 µM); in series [2] (setting [8]), above 1.02 mg/mL.
Take `CNCC(=O)OCc1cccnc1N(C)C(=O)OC(C)[N+]1(CC(N)=O)CCC(c2ccc3[nH]c(-c4cn5ncnc5c(C)c4C)c(C(C)C)c3c2)CC1` (stereo not shown) [Example 14, 1-(2-Amino-2-oxoethyl)-4-(2-(7,8-dimethyl-[1,2,4]triazolo[1,5-a]pyridin-6-yl)-3-isopropyl-1H-indol-5-yl)-1-(1-((methyl(3-(((methylglycyl)oxy)methyl)pyridin-2-yl)carbamoyl)oxy)ethyl)piperidin-1-ium ditrifluoroacetate]: the half-life in series [1] (setting [3]) was 179 h; in series [1] (setting [4]) it was 85 h; in series [1] (setting [5]), 1.6 h. The solubility was above 1.51 mg/mL in series [2] (setting [6]) and above 0.98 mg/mL in series [2] (setting [7]).
With `Cc1c(-c2c(C(C)C)c3cc(C4CCN(CC(N)=O)CC4)ccc3n2C(=O)OCOC(=O)C2(N)CC2)cn2ncnc2c1C` [Example 15, ((1-Aminocyclopropane-1-carbonyl)oxy)methyl 5-(1-(2-amino-2-oxoethyl)piperidin-4-yl)-2-(7,8-dimethyl-[1,2,4]triazolo[1,5-a]pyridin-6-yl)-3-isopropyl-1H-indole-1-carboxylate trifluoroacetate], the half-life is 347 h in series [1] (setting [3]), 139 h in series [1] (setting [4]) and 39 h in series [1] (setting [5]). The solubility is above 0.94 mg/mL in series [2] (setting [6]), above 0.9 mg/mL in series [2] (setting [7]) and 0.8 mg/mL in series [2] (setting [8]).
As to `Cc1c(-c2c(C(C)C)c3cc(C4CCN(CC(N)=O)CC4)ccc3n2C(=O)CN(C)C(=O)OCOP(=O)(O)O)cn2ncnc2c1C` [Example 19, (Phosphonooxy)methyl (2-(5-(1-(2-amino-2-oxoethyl)piperidin-4-yl)-2-(7,8-dimethyl-[1,2,4]triazolo[1,5-a]pyridin-6-yl)-3-isopropyl-1H-indol-1-yl)-2-oxoethyl)(methyl) carbamate], the values for the half-life in series [1] (setting [3]), in series [1] (setting [4]) and in series [1] (setting [5]) were 157 h, 207 h and 65 h, respectively. The solubility in series [2] (setting [6]) was above 1.09 mg/mL; in series [2] (setting [7]), 0.7 mg/mL (≈ 1050 µM); in series [2] (setting [8]), above 1.01 mg/mL.
As for `COc1cc(C(=O)OCOC(=O)n2c(-c3cn4ncnc4c(C)c3C)c(C(C)C)c3cc(C4CCN(CC(N)=O)CC4)ccc32)ccc1OP(=O)(O)O` [Example 22, ((3-Methoxy-4-(phosphonooxy)benzoyl)oxy)methyl 5-(1-(2-amino-2-oxoethyl)piperidin-4-yl)-2-(7,8-dimethyl-[1,2,4]triazolo[1,5-a]pyridin-6-yl)-3-isopropyl-1H-indole-1-carboxylate], the half-life in series [1] (pH 1 (0.1 M HCl), read-out: Stability (t1/2, h) at 37° C. pH 1 (converted)) was 400 h; in series [1] (pH 4 (acetate buffer), read-out: Stability (t1/2, h) at 37° C. pH 4 (converted)), above 500 h; in series [1] (pH 6.5 (phosphate buffer), read-out: Stability (t1/2, h) at 37° C. pH 6.5 (converted)) it was above 500 h. The solubility in series [2] (simulated gastric fluid, aqueous buffer pH 1, 25° C., read-out: Solubility (mg/mL) at 25° C. pH 1) is above 1.02 mg/mL; in series [2] (aqueous buffer pH 4, 25° C., read-out: Solubility (mg/mL) at 25° C. pH 4), 0.02 mg/mL (≈ 26.7 µM); in series [2] (aqueous buffer pH 6.5, 25° C., read-out: Solubility (mg/mL) at 25° C. pH 6.5), 0.02 mg/mL (≈ 26.7 µM).
Take `CNCCN(C)C(=O)OC[N+]1(CC(N)=O)CCC(c2ccc3[nH]c(-c4cn5ncnc5c(C)c4C)c(C(C)C)c3c2)CC1` (stereo not shown) [Example 23, 1-(2-Amino-2-oxoethyl)-4-(2-(7,8-dimethyl-[1,2,4]triazolo[1,5-a]pyridin-6-yl)-3-isopropyl-1H-indol-5-yl)-1-(((methyl(2-(methylamino)ethyl)carbamoyl)oxy)methyl) piperidin-1-ium trifluoroacetate]: the results for the half-life in series [1] (setting [3]), in series [1] (setting [4]) and in series [1] (setting [5]) were above 500 h, 9.6 h and 0.1 h, respectively. The solubility is above 0.82 mg/mL in series [2] (setting [6]) and above 0.85 mg/mL in series [2] (setting [7]).
`CCOC(=O)n1c(-c2cn3ncnc3c(C)c2C)c(C(C)C)c2cc(C3CCN(CC(N)=O)CC3)ccc21` [Example 24, Ethyl 5-(1-(2-amino-2-oxoethyl)piperidin-4-yl)-2-(7,8-dimethyl-[1,2,4]triazolo[1,5-a]pyridin-6-yl)-3-isopropyl-1H-indole-1-carboxylate]: the half-life in series [1] (setting [3]), in series [1] (setting [4]) and in series [1] (setting [5]) was above 500 h in each case. Besides, the solubility is above 1.39 mg/mL in series [2] (setting [6]), above 2.93 mg/mL in series [2] (setting [7]) and 0.1 mg/mL (≈ 194 µM) in series [2] (setting [8]).
With `Cc1c(-c2c(C(C)C)c3cc(C4CCN(CC(N)=O)CC4)ccc3n2CO)cn2ncnc2c1C` [Example 25, 2-(4-(2-(7,8-Dimethyl-[1,2,4]triazolo[1,5-a]pyridin-6-yl)-1-(hydroxymethyl)-3-isopropyl-1H-indol-5-yl)piperidin-1-yl)acetamide], the results for the half-life in series [1] (setting [3]), in series [1] (setting [4]) and in series [1] (setting [5]) were 179 h, above 500 h and above 500 h, respectively. The values for the solubility in series [2] (setting [6]), in series [2] (setting [7]) and in series [2] (setting [8]) were above 1.41 mg/mL, 1.28 mg/mL (≈ 2700 µM) and 0.01 mg/mL (≈ 21.1 µM), respectively.

The values are drawn from US20220213099A1, “PRODRUG COMPOUNDS” (BRISTOL-MYERS SQUIBB COMPANY, priority 2019, published 2022).
